Source: patent US20230190707A1, “COMPOSITIONS AND METHODS FOR ENHANCING CANCER IMMUNOTHERAPY” (FRED HUTCHINSON CANCER CENTER, priority 2020, published 2023)

Biological target: H-2K^b (Mus musculus, UniProt P01901)
Assay: MHC I immunoprecipitation and LC-MS/MS, H-2K^b
Type: cell-based
Text: Peptide-MHC complexes were isolated as previously described (Abelin, J. G., et al. (2017). Mass Spectrometry Profiling of HLA-Associated Peptidomes in Mono-allelic Cells Enables More Accurate Epitope Prediction. Immunity 46, 315-326, incorporated herein by reference in its entirety), with the following modifications: anti-mouse H-2D^b (clone B22-249.R1, CedarLane laboratories, Cat. CL9001AP) or H-2K^b (clone Y-3, BioXCell Cat. BE0172) non-covalently linked to GammaBind Plus Sepharose beads were co-incubated with soluble lysates overnight. […]
Desalted, dried samples enriched for MHC peptides were resolubilized in 8 uL 0.10% TFA and 3 uL were loaded onto a packed-in-emitter 12 cm/75 um ID/3 um C18 particles column (Nikkyo Technos Co., Ltd. Japan). […] Precursor mass spectra were recorded from m/z 300-1500 m/z range at 60,000 resolution. […] MS/MS spectra were recorded at 30,000 resolution and lowest mass set at m/z 110. […] All experiments were recorded in FT-mode.
Mass spectra from all MHC immunoprecipitations were analyzed using Proteome Discoverer v2.4.1.15, with the following workflow. […]

H-2K^b, sequence (P01901 22-369 limits assumed): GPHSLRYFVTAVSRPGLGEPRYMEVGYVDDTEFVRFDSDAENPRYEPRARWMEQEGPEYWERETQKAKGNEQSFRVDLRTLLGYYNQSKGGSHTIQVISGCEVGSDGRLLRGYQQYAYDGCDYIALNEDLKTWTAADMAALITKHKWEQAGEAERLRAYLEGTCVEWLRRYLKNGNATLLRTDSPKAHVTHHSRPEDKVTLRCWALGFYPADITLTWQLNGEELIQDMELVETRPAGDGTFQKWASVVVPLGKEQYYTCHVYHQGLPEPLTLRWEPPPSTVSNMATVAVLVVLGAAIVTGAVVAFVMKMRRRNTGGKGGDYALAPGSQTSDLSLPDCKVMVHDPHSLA

Compound: NS(=O)(=O)c1ccc(S(=O)(=O)Nc2cccc3c(Cl)c[nH]c23)cc1 [indisulam]
- peptides only recovered from indisulam-treated samples (B16-F10 cells): 366
- bound peptides arising from mRNA isoforms specifically promoted by indisulam treatment (intersection with RNA-seq): 28
